Laboratory results as given in patent publication US9206161B2, “Bridged bicyclic heteroaryl substituted triazoles useful as Axl inhibitors” (Rigel Pharmaceuticals, Inc., priority 2008, dated 2015).
Each block holds one molecule with its values, some of them ahead of it.

Target: T1, Axl (Homo sapiens, UniProt P30530)
T1 construct: endogenous in cells; host or cells: HeLa cells
T1 sequence (P30530 26-894): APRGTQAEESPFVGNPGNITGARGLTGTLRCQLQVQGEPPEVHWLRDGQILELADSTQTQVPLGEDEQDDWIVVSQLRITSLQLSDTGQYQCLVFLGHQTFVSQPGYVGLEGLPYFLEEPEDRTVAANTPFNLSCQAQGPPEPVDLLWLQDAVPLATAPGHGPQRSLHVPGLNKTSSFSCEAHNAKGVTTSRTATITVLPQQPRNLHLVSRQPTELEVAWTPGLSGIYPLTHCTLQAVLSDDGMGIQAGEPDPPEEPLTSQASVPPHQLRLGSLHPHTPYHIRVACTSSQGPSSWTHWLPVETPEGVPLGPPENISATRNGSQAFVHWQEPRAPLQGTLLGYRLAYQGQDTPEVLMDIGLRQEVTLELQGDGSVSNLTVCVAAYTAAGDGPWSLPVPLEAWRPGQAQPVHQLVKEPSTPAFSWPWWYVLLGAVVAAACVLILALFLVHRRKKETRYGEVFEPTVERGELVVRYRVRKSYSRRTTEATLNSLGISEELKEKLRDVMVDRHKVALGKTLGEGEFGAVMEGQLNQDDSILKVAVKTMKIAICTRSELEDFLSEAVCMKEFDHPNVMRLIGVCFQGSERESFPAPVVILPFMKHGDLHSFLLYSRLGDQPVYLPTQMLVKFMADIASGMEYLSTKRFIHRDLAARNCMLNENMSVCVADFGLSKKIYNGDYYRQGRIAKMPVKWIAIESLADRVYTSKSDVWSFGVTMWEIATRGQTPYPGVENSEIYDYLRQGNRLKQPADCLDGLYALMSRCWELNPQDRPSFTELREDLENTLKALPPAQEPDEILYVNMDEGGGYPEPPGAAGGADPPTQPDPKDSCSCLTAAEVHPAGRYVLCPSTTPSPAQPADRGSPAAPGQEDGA
Assay: Phospho-Akt in-cell Western assay
Type: cell-based
Conditions: Hela cells, Axl antibody cross-linking stimulation, phospho-Akt readout
Protocol: Phospho-Akt in-Cell Western Assay
The compounds of the invention were tested in the following assay for their ability to inhibit Axl activity.
• Cell culture plate: 96 well assay plate (Corning 3610), white, clear bottom, tissue-culture treated. • Cells: Hela cells. • Starvation medium: For Axl stimulation: 0.5% FCS (fetal calf serum) in DMEM, plus Axl/Fc (extracellular domain of AXL fused to immunoglobulin Fc region) (R&D, 154-AL) 500 ng/mL. • For EGF (epidermal growth factor) stimulation: 0.5% FCS in DMEM (Dulbecco's modified Eagles medium). • Poly-L-Lysine 0.01% solution (the working solution): 10 μg/ml, dilute In PBS (phosphate buffered saline). • Axl antibody cross-linking: • 1st: Mouse anti-Axl (R&D, MAB154). • 2nd: Biotin-SP-conjugated AffiniPure goat anti-mouse IgG (H+L) (Jackson ImmunoResearch #115-065-003). • Fixing buffer: 4% formaldehyde in PBS. • Wash buffer: 0.1% TritonX-100 in PBS. • Quenching buffer: 3% H2O2, 0.1% Azide in wash buffer, Azide and hydrogen peroxide (H2O2) are added fresh. • Blocking buffer: 5% BSA in TBST (tris buffered saline plus 0.1% Tween 20). • Primary antibody: Rabbit anti-human Phospho-Akt antibody (Cell Signaling 9271): 1×250 diluted in blocking buffer. • Secondary antibody: HRP (horse radish peroxidase)-conjugated Goat anti-Rabbit secondary, stock solution: Jackson ImmunoResearch (Goat anti-Rabbit HRP, #111-035-144) 1:1 diluted in glycerol, store at −20° C. The working solution: 1×2000 dilution of stock in blocking buffer. • Chemiluminescent working solution (Pierce, 37030): SuperSignal ELISA (enzyme linked immunosorbant assay) Pico Chemiluminescent substrate. • Crystal Violet solution: Stock: 2.5% Crystal violet in methanol, filtered and kept at ambient temperature. The working solution: dilute the stock 1:20 with PBS immediately before use. • 10% SDS: working solution: 5% SDS (sodium dodecylsulfate), diluted in PBS Methods: Day 1:
A 96 well TC (tissue culture treated) plate was coated with 10 μg/mL poly-L-Lysine at 37° C. for 30 min, washed twice with PBS, and air-dried for 5 minutes before cells were added. Hela cells were seeded at 10,000 cells/well and the cells were starved in 100 μL starvation medium containing Axl/Fc for 24 hrs.
The cells were pre-treated with test compounds by adding 100 μL of 2× test compound to the starvation medium on the cells. The cells were incubated at 37° C. for 1 hr before stimulation.
The cells were stimulated by Axl-antibody cross-linking as follows: A 5×1st/2nd Axl antibody mixture was made (37.5 μg/mL 1st/100 μg/mL 2nd) in starvation medium and nutated at 4° C. with thorough mixing for 1-2 hours for clustering. The resulting mix was warmed to 37° C. 50 μL of 5× Axl 1st/2nd of antibody cluster was added to the cells and the cells were incubated at 37° C. for 5 min.
After 5 minutes stimulation, the plate was flicked to remove medium and the plate was tapped onto paper towels. Formaldehyde (4.0% in PBS, 100 μL) was added to fix the cells and the cells were incubated at ambient temperature for 20 min without shaking.
The cells were washed with a plate washer buffer to remove the formaldehyde solution. The plate was flicked to removed excess wash buffer and tapped onto paper towels. Quenching buffer (100 μL) was added to each well and the cells were incubated at ambient temperature for 20 minutes without shaking.
The cells were washed with a plate washer buffer to remove the quenching buffer. Blocking buffer (100 μL) was added and the cells were incubated at ambient temperature for at least an hour with gentle shaking.
The cells were washed with a plate washer buffer and diluted primary antibody (50 μL) was added to each well (blocking buffer was added to the negative control wells instead). The plates were incubated overnight at 4° C. with gentle shaking.
The wash buffer was removed, diluted secondary antibody (100 μL) was added, and the cells were incubated at ambient temperature for 1 hour with gentle shaking. […]

IC50 (Table 5, formula (IVa)): < 1000 nM
Structure (SMILES): Nc1nc(Nc2ccc(N3CCC(N4CCCC4)CC3)c(F)c2)nn1-c1nnc(-c2ccc3c(c2)OCO3)c2c1C1CCC2CC1 [Compound 17, 1-(4-(benzo[d][1,3]dioxol-5-yl)-5,8-ethano-5,6,7,8-tetrahydrophthalazine-1-yl)-N^3-(4-(4-(pyrrolidin-1-yl)piperidinyl)-3-fluorophenyl)-1H-1,2,4-triazole-3,5-diamine]

IC50 (Table 5, formula (IVa)): 1000 to 10000 nM
Structure (SMILES): Cc1cccc(-c2nnc(-n3nc(Nc4ccc(N5CCC(N6CCCC6)CC5)c(F)c4)nc3N)c3c2C2CCC3CC2)c1 [Compound 19, 1-(4-(3-methylphenyl)-5,8-ethano-5,6,7,8-tetrahydrophthalazine-1-yl)-N^3-(4-(4-(pyrrolidin-1-yl)piperidinyl)-3-fluorophenyl)-1H-1,2,4-triazole-3,5-diamine]

IC50 (Table 1, formula (Ia)): < 1000 nM
Structure (SMILES): Nc1nc(Nc2cnc3c(c2)CC(NC2CCCC2)CC3)nn1-c1cc(-c2ccccc2)c2c(n1)C1CCN2CC1 (centres unmarked) [Compound 5, 1-(1,4-ethano-8-phenyl-1,2,3,4-tetrahydro-1,5-naphthyridin-6-yl)-N^3-(6-(cyclopentylamino)-5,6,7,8-tetrahydroquinoline-3-yl)-1H-1,2,4-triazole-3,5-diamine]

IC50 (Table 5, formula (IVa)): < 1000 nM
Structure (SMILES): Nc1nc(Nc2ccc(N3CCC(N4CCCC4)CC3)c(F)c2)nn1-c1nnc(-c2ccccc2Cl)c2c1C1CCC2CC1 [Compound 15, 1-(4-(2-chlorophenyl)-5,8-ethano-5,6,7,8-tetrahydrophthalazine-1-yl)-N^3-(4-(4-(pyrrolidin-1-yl)piperidinyl)-3-fluorophenyl)-1H-1,2,4-triazole-3,5-diamine]

IC50 (Table 1, formula (Ia)): < 1000 nM
Structure (SMILES): CN(C)CC(=O)NC1CCc2ncc(Nc3nc(N)n(-c4cc(-c5ccccc5)c5c(n4)C4CCN5CC4)n3)cc2C1 (centres unmarked) [Compound 3, 1-(1,4-ethano-8-phenyl-1,2,3,4-tetrahydro-1,5-naphthyridin-6-yl)-N^3-(6-[(((dimethyl)amino)methyl)carbonylamino]-5,6,7,8-tetrahydroquinoline-3-yl)-1H-1,2,4-triazole-3,5-diamine]

IC50 (Table 3, formula (II)): < 1000 nM
Structure (SMILES): Nc1nc(Nc2ccc(N3CCC(N4CCCC4)CC3)c(F)c2)nn1-c1cc(-c2cccc(C(F)(F)F)c2)c2c(n1)C1CCN2CC1 [Compound 10, 1-(1,4-ethano-8-(3-trifluoromethylphenyl)-1,2,3,4-tetrahydro-1,5-naphthyridin-6-yl)-N^3-(4-(4-(pyrrolidin-1-yl)piperidinyl)-3-fluorophenyl)-1H-1,2,4-triazole-3,5-diamine]

Further lines, the molecule ahead of its results:

Structure (SMILES): N#Cc1cccc(-c2nnc(-n3nc(Nc4ccc5c(c4)CCC(N4CCCC4)CC5)nc3N)c3c2C2CCC3CC2)c1 (centres unmarked) [Compound 31, 1-(4-(3-cyanophenyl)-5,8-ethano-5,6,7,8-tetrahydrophthalazine-1-yl)-N^3-(7-(pyrrolidin-1-yl)-6,7,8,9-tetrahydro-5H-benzo[7]annulene-2-yl)-1H-1,2,4-triazole-3,5-diamine]
IC50 (Table 8, formula (VI)): < 1000 nM

Structure (SMILES): CC(C)N[C@H]1CCc2ccc(Nc3nc(N)n(-c4cc(-c5ccccc5)c5c(n4)C4CCN5CC4)n3)cc2CC1 [Compound 37, (7S)-1-(1,4-ethano-8-phenyl-1,2,3,4-tetrahydro-1,5-naphthyridin-6-yl)-N^3-(7-(isopropylamino)-6,7,8,9-tetrahydro-5H-benzo[7]annulene-2-yl)-1H-1,2,4-triazole-3,5-diamine]
IC50 (Table 4, formula (III)): < 1000 nM

Structure (SMILES): Nc1nc(Nc2cnc3c(c2)CN(C2CCCC2)CC3)nn1-c1cc(-c2ccccc2)c2c(n1)C1CCN2CC1 [Compound 6, 1-(1,4-ethano-8-phenyl-1,2,3,4-tetrahydro-1,5-naphthyridin-6-yl)-N^3-(6-(cyclopentyl)-5,6,7,8-tetrahydro-1,6-naphthyridine-3-yl)-1H-1,2,4-triazole-3,5-diamine]
IC50 (Table 2, formula (Ib)): < 1000 nM

Structure (SMILES): Cc1cccc(-c2nnc(-n3nc(Nc4ccc5c(c4)CCC(N4CCCC4)CC5)nc3N)c3c2C2CCC3CC2)c1 (centres unmarked) [Compound 30, 1-(4-(3-methylphenyl)-5,8-ethano-5,6,7,8-tetrahydrophthalazine-1-yl)-N^3-(7-(pyrrolidin-1-yl)-6,7,8,9-tetrahydro-5H-benzo[7]annulene-2-yl)-1H-1,2,4-triazole-3,5-diamine]
IC50 (Table 8, formula (VI)): < 1000 nM

Structure (SMILES): C[C@H]1CN(c2ccc(Nc3nc(N)n(-c4nnc(-c5ccccc5Cl)c5c4C4CCC5CC4)n3)cn2)CCN1CC1CC1 [Compound 22, (3S)-1-(4-(2-chlorophenyl)-5,8-ethano-5,6,7,8-tetrahydrophthalazine-1-yl)-N^3-(6-(4-(cyclopropylmethyl)-3-methylpiperazin-1-yl)pyridin-3-yl)-1H-1,2,4-triazole-3,5-diamine]
IC50 (Table 7, formula (V)): < 1000 nM

Structure (SMILES): Nc1nc(Nc2cnc3c(c2)CC(N)CC3)nn1-c1cc(-c2ccccc2)c2c(n1)C1CCN2CC1 (centres unmarked) [Compound 1, 1-(1,4-ethano-8-phenyl-1,2,3,4-tetrahydro-1,5-naphthyridin-6-yl)-N^3-(6-amino-5,6,7,8-tetrahydroquinoline-3-yl)-1H-1,2,4-triazole-3,5-diamine]
IC50 (Table 1, formula (Ia)): < 1000 nM

Structure (SMILES): C[C@H]1CN(c2ccc(Nc3nc(N)n(-c4nnc(Cl)c5c4C4CCC5CC4)n3)cn2)CCN1CC1CC1 [Compound 20, (3S)-1-(4-chloro-5,8-ethano-5,6,7,8-tetrahydrophthalazine-1-yl)-N^3-(6-(4-(cyclopropylmethyl)-3-methylpiperazin-1-yl)pyridin-3-yl)-1H-1,2,4-triazole-3,5-diamine]
IC50 (Table 7, formula (V)): < 1000 nM

Structure (SMILES): CN(C)[C@H]1CCc2ccc(Nc3nc(N)n(-c4cc(-c5ccccc5)c5c(n4)C4CCN5CC4)n3)cc2CC1 [Compound 36, (7S)-1-(1,4-ethano-8-phenyl-1,2,3,4-tetrahydro-1,5-naphthyridin-6-yl)-N^3-(7-(dimethylamino)-6,7,8,9-tetrahydro-5H-benzo[7]annulene-2-yl)-1H-1,2,4-triazole-3,5-diamine]
IC50 (Table 4, formula (III)): > 20000 nM
